The test system of test [1] is HeLa. The test is described as follows: Antiproliferative activity against human HeLa cells assessed as reduction in cell viability incubated for 72 hrs by MTT assay. It is filed as functional, cell-based.
For test [2], the system named is MCF7. The test is described as follows: Cytotoxicity against human MCF7 cells assessed as reduction in cell viability incubated for 48 hrs by MTT assay. The conditions noted are these: MCF7, 48 h. In kind it is functional, cell-based. Background: Tetrazolium dyes change colour on reduction, which living cells bring about.
Test [3] concerns MCF7. The test is described as follows: Inhibition of colony formation in human MCF7 cells at 100 microM measured after 72 hrs by crystal violet staining based analysis relative to control. It is filed as functional.
The subject of test [4] is HepG2. Briefly: Cytotoxicity against human HepG2 cells. It is filed as functional, cell-based.
The subject of test [5] is MCF7. Briefly: Cytotoxicity against human MCF7 cells. In kind it is functional, cell-based.
For test [6], the system named is SK-MEL-28. The test is described as follows: Cytotoxicity against human SK-MEL-28 cells assessed as reduction in cell growth incubated for 24 hrs by MTT assay. It is filed as functional.
Test [7] concerns A549. The test is described as follows: Antiproliferative activity against human A549 cells assessed as reduction in cell viability measured for 48 hrs by WST-1 assay. In kind it is functional, cell-based. Conditions: A549, 48 h.
Test [8] has as its system HT-29. Briefly: Antiproliferative activity against human HT-29 cells assessed as reduction in cell viability measured for 48 hrs by WST-1 assay. The conditions noted are these: HT-29, 48 h. It is filed as functional, cell-based.
The test system of test [9] is HeLa. Briefly: Antiproliferative activity against human Hela cells assessed as reduction in cell viability measured for 48 hrs by WST-1 assay. It is filed as functional, cell-based.
Test [10] concerns MCF7. Briefly: Antiproliferative activity against human MCF7 cells assessed as reduction in cell viability measured for 48 hrs by WST-1 assay. In kind it is functional, cell-based. The conditions noted are these: MCF7, 48 h.
Test [11] has as its system MOLT-4. Briefly: Antiproliferative activity against human MOLT-4 cells assessed as reduction in cell viability measured for 48 hrs by WST-1 assay. It is filed as functional, cell-based. The conditions noted are these: MOLT-4, 48 h.
Test [12] relates to MCF7. Briefly: Cytotoxicity against human MCF7 cells assessed as reduction in cell viability. It is filed as functional, cell-based.
For test [13], the system named is Calu-3. The test is described as follows: Cytotoxicity against human Calu-3 cells assessed as reduction in cell viability. In kind it is functional, cell-based.
Test [14] has as its system HCT-116. Briefly: Antiproliferative activity against human HCT-116 cells assessed as reduction in cell viability incubated for 24 hrs by MTT assay. It is filed as functional, cell-based. Conditions: HCT-116, 24 h.
Test [15] relates to SK-BR-3. Briefly: Antiproliferative activity against human SK-BR-3 cells assessed as reduction in cell viability incubated for 24 hrs by alamar blue assay. In kind it is functional, cell-based. Conditions: SK-BR-3, 24 h. (The colour change of resazurin is a common sign of viable cells or microbes.)
The subject of test [16] is HL-60. Briefly: Growth inhibition of human HL-60 cells. In kind it is functional.
For test [17], the system named is A-375. Briefly: Antiproliferative activity against human A-375 cells assessed as reduction in cell growth incubated for 48 hrs by MTT assay. In kind it is functional, cell-based. The conditions noted are these: A-375, 48 h.
Test [18] concerns MeWo. Briefly: Antiproliferative activity against human MeWo cells assessed as reduction in cell growth incubated for 48 hrs by MTT assay. In kind it is functional, cell-based.
For test [19], the system named is MCF7. Briefly: Cytotoxicity against human MCF7 cells assessed as reduction in cell growth incubated for 72 hrs by MTT assay. In kind it is functional, cell-based. The conditions noted are these: MCF7, 72 h.
In test [20] the test system is SK-OV-3. The test is described as follows: Antiproliferative activity against human SK-OV-3 cells assessed as reduction in cell viability incubated for 48 hrs by MTT assay. In kind it is functional, cell-based. Conditions: SK-OV-3, 48 h.
Test [21] has as its system A2780. Briefly: Antiproliferative activity against human A2780 cells assessed as reduction in cell viability incubated for 48 hrs by MTT assay. In kind it is functional, cell-based. The conditions noted are these: A2780, 48 h.
The nature of test [22]: Selectivity index, ratio of IC50 for inhibition of CYP1B1 (unknown origin) to IC50 for inhibition of CYP1A1 (unknown origin).
In test [23] the target is Cytochrome P450 1A1 (Homo sapiens, UniProt P04798). The test is described as follows: Inhibition of CYP1A1 (unknown origin) expressed in HEK293 cells. In kind it is ADME, cell-based.
Chain of Cytochrome P450 1A1 (P04798 whole entry): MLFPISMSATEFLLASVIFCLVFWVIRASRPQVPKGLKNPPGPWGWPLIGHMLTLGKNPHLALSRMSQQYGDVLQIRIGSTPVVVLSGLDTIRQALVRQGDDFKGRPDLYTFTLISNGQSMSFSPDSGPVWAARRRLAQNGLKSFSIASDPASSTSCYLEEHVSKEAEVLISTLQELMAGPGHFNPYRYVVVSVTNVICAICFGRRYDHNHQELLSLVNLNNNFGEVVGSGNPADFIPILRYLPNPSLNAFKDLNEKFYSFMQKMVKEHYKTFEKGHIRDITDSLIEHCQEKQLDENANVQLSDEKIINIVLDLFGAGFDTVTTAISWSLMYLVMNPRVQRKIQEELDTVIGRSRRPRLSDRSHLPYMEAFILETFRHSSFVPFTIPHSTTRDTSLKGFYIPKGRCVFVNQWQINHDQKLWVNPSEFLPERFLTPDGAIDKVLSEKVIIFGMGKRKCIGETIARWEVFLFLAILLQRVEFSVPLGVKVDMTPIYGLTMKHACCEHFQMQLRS
The subject of test [24] is HCT-116. Briefly: Cytotoxicity against human HCT-116 cells assessed as reduction in cell viability incubated for 48 hrs by SRB assay. In kind it is functional, cell-based. Conditions: HCT-116, 48 h. (In general: In SRB staining, fixed cells bind dye roughly in proportion to their protein.)
Test [25] relates to HL-60. The test is described as follows: Cytotoxicity against human HL-60 cells assessed as reduction in cell growth incubated for 72 hrs by MTT assay. The conditions noted are these: HL-60, 72 h. It is filed as functional, cell-based.
In test [26] the test system is PC-3. Briefly: Cytotoxicity against human PC-3 cells assessed as reduction in cell growth incubated for 72 hrs by MTT assay. Conditions: PC-3, 72 h. It is filed as functional, cell-based.
Test [27] has as its system HepG2. Briefly: Cytotoxicity against human HepG2 cells assessed as reduction in cell growth incubated for 72 hrs by MTT assay. It is filed as functional, cell-based. Conditions: HepG2, 72 h.
Test [28] has as its system SF-295. Briefly: Cytotoxicity against human SF-295 cells assessed as reduction in cell growth incubated for 72 hrs by MTT assay. It is filed as functional, cell-based. Conditions: SF-295, 72 h.
Test [29] relates to HCT-116. Briefly: Cytotoxicity against human HCT-116 cells assessed as reduction in cell growth incubated for 72 hrs by MTT assay. In kind it is functional, cell-based. Conditions: HCT-116, 72 h.
The subject of test [30] is KYSE-70 cell line. Briefly: Cytotoxicity against human KYSE-70 cells assessed as reduction in cell viability incubated for 72 hrs by MTS assay. In kind it is functional, cell-based. Conditions: KYSE-70, 72 h.
Test [31] relates to KYSE-270. The test is described as follows: Cytotoxicity against human KYSE-270 cells assessed as reduction in cell viability incubated for 72 hrs by MTS assay. It is filed as functional, cell-based. Conditions: KYSE-270, 72 h.
In test [32] the test system is A549. Briefly: Cytotoxicity against human A549 cells assessed as reduction in cell growth incubated for 48 hrs by MTT assay. In kind it is functional, cell-based. The conditions noted are these: A549, 48 h.

Turning to `CCNC(=O)CC[C@H](NC(=O)c1cc2cc(Br)ccc2oc1=O)C(=O)OCC`, the half-inhibitory concentration (IC50) in [1] came to 250 µM.
Turning to `C/C=C/c1ccc(OCc2ccc(Cl)cc2)c(OC)c1`, the IC50 in test [2] is 6.59 µM. In test [3], this compound showed an inhibition at 100 µM of 87.5%.
On to `C/C(=N\NC(=O)c1ccc(O)cc1)c1ccc(NC(=O)Cn2c(=O)c3c(ncn3C)n(C)c2=O)cc1`, for which the IC50 in [4] amounted to 0.22 µM; in [5], 0.42 µM.
Regarding `CC(=O)OCC1=C2[C@@H](OC(C)=O)C[C@@](C)(OC(C)=O)C(=O)CC[C@@]3(C)O[C@@H]3[C@@]2(OC(C)=O)OC1=O`, the CC50 in [6] worked out at 3.1 µM.
As to `COc1c2c(cc3c1OCO3)[C@]13C=C[C@H](OC)C[C@H]1N(C2)C[C@H]3OC(=O)c1ccc(Cl)c([N+](=O)[O-])c1`, the 50% inhibitory concentration (IC50) amounted to 0.8 µM in test [7]; 1.4 µM in test [8]; 0.7 µM in test [9]; 0.6 µM in test [10]; 1.9 µM in test [11].
In the case of `Cn1c2ccccc2c(=O)c2c(OCCCOc3cc4c(c5c3c(=O)c3ccccc3n5C)C=CC(C)(C)O4)cc3c(c21)C=CC(C)(C)O3`, the values for the IC50 in test [12] and in test [13] were 13.2 µM and 4.49 µM, respectively.
In the case of `CN1CCN(CCCOc2cc(-c3oc4cc(O)cc(O)c4c(=O)c3O)ccc2O)CC1`, the IC50 in test [14] worked out at 0.48 µM.
For `COc1ccc2c(CCCc3ccc(Cl)cc3Cl)c3[n+](cc2c1OC)CCc1cc2c(cc1-3)OCO2`, the IC50 in test [15] is 6.3 µM.
With `COc1cc(/C=C/c2cc(/C=C/c3ccc(O)c(OC)c3)n(-c3c(Cl)cccc3Cl)c(=O)n2)ccc1O`, growth in [16] was halved (GI50) at 2.64 µM.
For the compound `CC1(C)CC[C@]2(C(=O)N3CCOCC3)CC[C@]3(C)C(=CC[C@@H]4[C@@]5(C)CC/C(=N\OC(=O)CBr)C(C)(C)[C@@H]5CC[C@]43C)[C@@H]2C1`, the IC50 in test [17] and in [18] was 100 µM each time.
Take `C[C@@H]1CC[C@H]2[C@@H](C)C(OC(=O)CCC(=O)O)O[C@@H]3O[C@@]4(C)CC[C@@H]1[C@]32OO4` (single isomer, unassigned): the IC50 in test [19] is 43.8 µM.
In the case of `CC1=C(O)C(=O)C=C2C1=CC=C1[C@@]2(C)CC[C@@]2(C)[C@@H]3C[C@](C)(C(=O)N4CCN(C(C)C)CC4)CC[C@]3(C)CC[C@]12C`, the IC50 stood at 0.47 µM in test [20] and 0.87 µM in test [21].
`COc1c2occc2c(OC)c2c(=O)cc(-c3ccc(F)c(Br)c3)oc12`: the Ratio IC50 in test [22] came to 170. Besides, in test [23], the IC50 stood at 0.14 µM.
`C[C@H]1CC[C@@H]2[C@@H](OC(=O)[C@]23C[C@H]2CCCN2C32C(=O)c3ccccc3C2=O)[C@]2(C)C(=O)C=C[C@@]12O`: in test [24], the IC50 was found to be 5 µM.
With `CCC(=O)OCC(=O)[C@@]1(C)CC[C@H]2C(=C[C@@H]3OC(=O)[C@@]4(C)[C@@H]3[C@]23CC[C@]4(O)OC3)C1`, the half-inhibitory concentration (IC50) in test [25] amounted to 3.14 µM; in test [26], 3.2 µM; in test [27], 13.5 µM; in [28], 3.59 µM; in [29], 3.62 µM.
With `CCCCCCCCCCCC(=O)O[C@H]1C(C)=C[C@]23C(=O)[C@@H](C=C(CO)[C@@H](O)[C@]12O)[C@H]1[C@@H](C[C@H]3C)C1(C)C`, the IC50 in test [30] amounted to 3.58 µM; in test [31] it was 1.88 µM.
Turning to `COc1ccc(CC(=O)OCC2=CC[C@@H]3[C@](C)(CO)[C@H](O)CC[C@@]3(C)[C@@H]2/C=C/C2=CCOC2=O)cc1`, the IC50 in test [32] came to 3.5 µM.

Broadly, the IC50 is the concentration needed to halve the response being measured. As a reminder, the inhibition is the relative decrease from the control value, in per cent. Lower therefore signals a response near the control. What is called CC50 is the concentration at which the toxic effect on the cells reaches its halfway point. For orientation: GI50 means the concentration that inhibits growth by half.

These data come from ChEMBL document CHEMBL6177938, “Semisynthetic phytochemicals in cancer treatment: a medicinal chemistry perspective” (RSC Med Chem, 2024).
